Reference: ChEMBL document CHEMBL2046426, “Neo-clerodane diterpenes from Salvia herbacea” (J Nat Prod, 2012)
Blank lines part the entries; values can stand above or below the compound they belong to. The source made the active and inactive calls. The rule behind the calls is not given here.

Legend:
Mus musculus [1] = experiment: Antiinflammatory activity in CD-1 mouse assessed as inhibition of TPA-induced ear edema at 0.1 to 1.0 uM applied topically 10 mins before compound challenge measured after 4 hrs; assay type: functional, organism-based
Mus musculus [2] = experiment: Antiinflammatory activity in CD-1 mouse assessed as inhibition of TPA-induced ear edema applied topically 10 mins before compound challenge measured after 4 hrs; assay type: functional, organism-based; settings: CD-1, Ear
SK-LU-1 = experiment: Cytotoxicity against human SKLU1 cells after 48 hrs by SRB assay; assay type: functional, cell-based; settings: SK-LU-1, 48 h
U-251 = experiment: Cytotoxicity against human U251 cells after 48 hrs by SRB assay; assay type: functional, cell-based; settings: U-251, 48 h

SMILES: COc1ccc2c(c1)c(CC(=O)O)c(C)n2C(=O)c1ccc(Cl)cc1
inhibition (Mus musculus [1]): Active

IC50 (Mus musculus [2]): 0.24 µmol/ear
SMILES: C[C@]12C[C@H](c3ccoc3)OC(=O)[C@@]1(O)CC[C@@]13COC(=O)C1=CC[C@H]1O[C@]132 [TEHUANINE G]

SMILES: C[C@]12C[C@H](c3ccoc3)OC(=O)[C@@H]1[C@H](O)C[C@@]13COC(=O)C1=CC[C@H]1O[C@]132 [TEHUANINE F]
IC50 (SK-LU-1): 38.9 µM
IC50 (U-251): 41.9 µM
